# Values joined by “and” are separate entries in the source; they are usually repeats but may differ in a detail not shown here. Equal values may be shown once. Read-outs that look alike come from different tables or passages of the source.
# Experiments:
# Format in all cases: binding
# BRD4(1)^L94C [1] = molecular target: T1, BRD4(1)^L94C (Homo sapiens, UniProt O60885, L94C); assay: Protein LCMS labeling assay 1; conditions: for Labeled Protein (%) L94C 1 h / Labeled Protein (%) L94C 4 h: 50 μM compound, 10 µM protein, 37 °C, mean of three ± s.e.m., ND = not detectable
# T1 construct: Characterization of His6-BRD4(1)L94C; made in house; host or cells: E. coli BL21 (DE3)
# Protocol: (§1) The resulting library of 22 fragments was screened for BRD4(1)^L94C binding at a concentration of 50 μM using a protein LCMS assay (referred to as “labeling assay 1”). […] To assess the selectivity of the fragments for the labeling of C94, hits were also screened against BRD4(1)^WT under the same conditions. […] The acrylamide-based fragment, 12, labeled 98% of BRD4(1)^L94C after 4 h. While 95% of the protein was labeled once, 3% of the protein was labeled twice (Figure 5D). […] Fragment 14, designed by appending a β-dimethylaminomethyl acrylamide to the structure of 12, led to 74% of singly labeled BRD4(1)^L94C after 4 h with no labeling of BRD4(1)^WT observed (Table 1 and Figure 5E). […] However, only 9.9% of labeled BRD4(1)^L94C was observed, substantially lower than the 56% labeling observed for the corresponding 3-methyl regioisomer 10 (Table 1). […]
# (§2) Assays were performed in 1.5 mL Eppendorf tubes at 37 °C and gently shaken, unless otherwise stated.
# (§3) Experiments were performed in a protein LCMS assay buffer, with 10 µM protein, and 50 µM of the desired compound with a final DMSO concentration of 0.5% (Table S16). Time points were taken at 0, 1 and 4 h, unless otherwise stated, where a 20 µL sample of the reaction mix was taken, diluted with 100 µL Milli-Q water, and flash frozen. Samples were thawed immediately prior to LCMS analysis on a Waters Xevo G2-S system (Waters) fitted with a ProSwift™ RP-2H PSDVB Reversed Phase HPLC Column (Thermofisher). Data was analysed and processed using MassLynx. The total ion chromatograms (TIC) were extracted (region containing protein) and the summed scans were deconvoluted (using MaxEnt). Covalent labeling was calculated using intensities of the unlabeled and labeled protein (Equation 1). Figures were made using GraphPad Prism 7.0.
# (§4) Table S16. Buffer composition for protein LCMS.
# (§5) Buffer Reagent Composition Amount per 1 L
# (§6) Protein LCMS Assay Buffer HEPES 25 mM 6.0 g
# (§7) Protein Labelling = Intensity of Labelled Peak × 100
# BRD4(1)^WT [2] = molecular target: T2, BRD4(1)^WT (Homo sapiens, UniProt O60885); assay: Protein LCMS labeling assay 1; conditions: 50 μM compound, 10 µM protein, 37 °C, 4 h; mean of three ± s.e.m.; ND = not detectable
# T2 construct: Characterization of His6-BRD4(1)WT; made in house; host or cells: E. coli BL21 (DE3)
# Protocol: Before introducing a Cys mutant into the first bromodomain of BRD4 [BRD4(1)], we wanted to rule out the possibility that the native Cys residues C125 and C136 (Figures 2A and S1), would react with electrophilic fragments. To test this, we incubated two KAc-mimicking methylisoxazole-based reactive fragments (1 and 2, Figure 2C) with purified BRD4(1)^WT.
# as §1, §2, §3, §4, §5, §6, §7
# BRD4(1)^L94C [3] = molecular target: T1, BRD4(1)^L94C; assay: AlphaScreen H4_1–20(KAc)4 peptide displacement
# Protocol: Under these conditions, all three fragments displaced the peptide from BRD4(1)^L94C, which is consistent with the fragments binding to BRD4(1)^L94C in the expected location (Table 2). […] The longer the mutant protein and electrophile are incubated together, the more time there is for a covalent interaction to occur. […]
# (§8) Dose response AlphaScreen™
# (§9) The peptide (Table S17) was supplied at >95% purity by GenScript and was stored as 1 mM stocks in […]
# (§10) Table S17. Amino acid sequences of peptides used in AlphaScreen™.
# (§11) Peptide Amino Acid Sequence […]
# (§12) The assay buffer (Table S18, pH 7.6) was filtered through a 0.22 μm filter before use. The buffer is stored at 4 °C as a 5× solution without bovine serum albumin (BSA), which was added on the day of use. The compounds, proteins, and peptides were dispensed into a ProxiPlate-384 Plus (Perkin Elmer) using a Thermo-Fisher electronic multi-channel pipette. For the incubation steps, the plates were sealed, shaken for 10 seconds at 600 rpm on a plate oscillator, and incubated at room temperature in darkness for 30 min or 3.5 h. Ni2+ chelate acceptor and streptavidin donor beads were prepared as a mixture in a 1:300 dilution (0.007 mg/mL final assay concentration, added to the plates and incubated for a further 30 min at room temperature. Plates were read using a SynergyTM 2 MultiMode Microplate Reader using the inbuilt AlphaScreen™ 384 ProxiPlate function: excitation 680 nm, 0.18 sec; emission […]
# (§13) Table S18. Composition of assay buffer used in AlphaScreen™ experiments, adjusted to pH 7.6 using an aqueous NaOH […]
# (§14) Reagent Composition Mass (mg) for 50 mL
# (§15) 50 mM DMSO stock solutions of the compounds were serially diluted, and dispensed into wells (5 μL).
# (§16) The protein-peptide mixes (7 μL) for each combination were prepared following the specified final assay concentration (Table S19), and dispensed into wells. Assay beads (8 μL) were added to attain a final assay volume of 20 μL. Dose response curves were obtained for each compound in triplicate, with serial 1:2 dilutions. Data was processed by fitting a four-parameter equation (Equation 2) to calculate IC50 values using Prism software.
# (§17) Table S19. Final assay concentrations of each peptide-protein combination.
# (§18) Protein Peptide Protein FAC (nM) Peptide FAC (nM)
# (§19) Response = Bottom + Top − Bottom
# BRD4(1)^WT [4] = molecular target: T2, BRD4(1)^WT; assay: AlphaScreen H4_1–20(KAc)4 peptide displacement
# Protocol: as §8, §9, §10, §11, §12, §13, §14, §15, §16, §17, §18, §19
# BRD4(1)^L94C [5] = molecular target: T1, BRD4(1)^L94C; assay: Protein LCMS labeling assay 2 (diverse reactive fragment screen); conditions: 1 μM protein, 4 °C, 24 h
# Protocol: To investigate whether screening of an unbiased set of covalent fragments could identify ligands for BRD4(1)^L94C, we evaluated 250 previously published cysteine-reactive compounds, comprising 138 acrylamide- and 112 chloroacetamide-functionalized reactive fragments with molecular weights ranging from 152 to 300 Da.[44] Due to the higher throughput of this screening assay, the conditions varied compared to “labeling assay 1”. In this case, 1 μM BRD4(1)^L94C was incubated with either a chloroacetamide fragment (50 μM) or an acrylamide fragment (200 μM) at 4 °C for 24 h (referred to as “labeling assay 2”). Samples were then analyzed using protein LCMS, where a positive hit was classified as a single protein labeling event with a mass shift corresponding to the mass of the fragment of ±2 Da and a labeled peak of >20% intensity. Of the 250 diverse reactive compounds screened against BRD4(1)^L94C, only one chloroacetamide and one acrylamide fragment were classified as hits (Figures 5A and S10). […]
# Experiments were performed in a protein LCMS assay buffer, with 10 µM protein, and 50 µM of the desired compound with a final DMSO concentration of 0.5% (Table S16). […] Data was analysed and processed using MassLynx. […] Covalent labeling was calculated using intensities of the unlabeled and labeled protein (Equation 1). […]
# [6] = IC50 (μM) L94C 1 h, 1 h incubation at RT, mean of three ± s.e.m.
# [7] = IC50 (μM) L94C 4 h, 4 h incubation at RT, mean of three ± s.e.m.
# [8] = 4 h incubation at RT, mean of three ± s.e.m.
Structure (SMILES),Labeled Protein (%) L94C 1 h (BRD4(1)^L94C [1]) [%],Labeled Protein (%) L94C 4 h (BRD4(1)^L94C [1]; 4 h),"BRD4(1)^L94C protein labeled once (BRD4(1)^L94C [1]; 50 μM, 4 h) [%]","BRD4(1)^L94C protein labeled twice (BRD4(1)^L94C [1]; 50 μM, 4 h) [%]",Labeled Protein (%) WT 4 h (BRD4(1)^WT [2]),IC50 (BRD4(1)^L94C [3]; [6]),IC50 (BRD4(1)^L94C [3]; [7]),IC50 (BRD4(1)^WT [4]; [8]) [µM],"Labeling of BRD4(1)^L94C, labeling assay 2 (BRD4(1)^L94C [5]; chloroacetamide fragment 50 μM) [%]","Labeling of BRD4(1)^L94C, labeling assay 2 (BRD4(1)^L94C [5]; acrylamide fragment 200 μM) [%]","IC50 (BRD4(1)^L94C [3]; IC50, prevention of H4_1–20(KAc)4 peptide binding to BRD4(1)^L94C, equals the 4 h value of Figure S13) [µM]","IC50 (BRD4(1)^L94C [3]; read-out: IC50 (μM) L94C 1 h, 1 h incubation at RT, mean of three ± s.e.m.) [µM]",IC50 (BRD4(1)^WT [4]; equals the 4 h value of Figure S14) [µM]
C=CC(=O)Nc1onc(C)c1-c1ccccc1 [Compound 12],70 ± 0.6,98% and 98 ± 0.2%,95,3,3% and 3.0 ± 0.2%,5.83 µM and 5.8 µM,1.27 µM and 1.3 µM,> 100,,,,,
Cc1noc(NC(=O)/C=C/CN(C)C)c1-c1ccccc1 [Compound 14],27 ± 2.2,74% and 74 ± 2.6%,,,no labeling,8.69 µM and 8.7 µM,4.45 µM and 4.4 µM,> 100,,,,,
O=C(CCl)Nc1nc(-c2cccs2)cs1 [Compound 26],,,,,,,,,27,,,,
C=CC(=O)Nc1ccc(N2CCCC2=O)c(OC)c1 [Compound 27],17 ± 1.0,61% and 61 ± 2.5%,,,no covalent binding,15.5 ± 3.2 µM,2.48 µM and 2.5 µM,> 100,,89,,,
"Cc1noc(C)c1-c1cc(O)cc(C(O)c2cccnc2)c1 (stereo not shown) [OXFBD04 (3), reference compound]",,,,,,,,,,,0.08 ± 0.009,0.059 ± 0.11,0.183 ± 0.025

# Reference: article PMC10660337, “Mutate and Conjugate: A Method to Enable Rapid In-Cell Target Validation” (ACS Chemical Biology, 2023)
